This note sets out measurements from ChEMBL document CHEMBL5120966, “Spicatulides A-G, Phenolic-Monoterpenoid Hybrids from Chloranthus spicatus” (J Nat Prod, 2022).

Assay [1] deals with HepG2. In words: Inhibition of lipogenesis in human HepG2 cells assessed as reduction in sterol synthesis. The class given is functional, cell-based. As to conditions: dose 12.5-50 µM, DDE = dose-dependent effect.
The test system of assay [2] is HepG2. In words: Inhibition of lipogenesis in human HepG2 cells assessed as reduction in fatty acids synthesis. The class given is functional, cell-based. As to conditions: dose 0.1-1 µM, DDE = dose-dependent effect.

In the case of `COC(=O)Cc1cc(O)cc2c1O[C@@](C)(CCC=C(C)C)C=C2`, in the assay with HepG2 [1], the “dose-dependent inhibition (qualitative)” value is “Dde”.

Turning to `COC(=O)[C@H]1c2cc(O)cc(C/C=C(\C)CCC=C(C)C)c2O[C@@]2(C)[C@@H](O)C=C(C(C)C)C[C@@H]12`, in the assay with HepG2 [1], the “dose-dependent inhibition (qualitative)” value was “Dde”. Consider `COC(=O)C[C@@]1(C/C=C(\C)CCC=C(C)C)CC(=O)C=C[C@@H]1O`, for which, in the assay with HepG2 [2], the inhibition entry was “Dde”. In addition, the “dose-dependent inhibition (qualitative)” value in the assay with HepG2 [1] is “Dde”. For the compound `COC(=O)[C@@]1(O)c2cc(O)cc(C/C=C(\C)CCC=C(C)C)c2O[C@@]2(C)C=C[C@H](C(C)C)C[C@@H]12`, the “dose-dependent inhibition (qualitative)” value with HepG2 [1] was “Dde”.
